This passage reports IC50 results from BindingDB's records for patent US20250059213 (Pretzel Therapeutics, 2025).

The target in this test is T1, Lon protease homolog, mitochondrial (Homo sapiens, UniProt P36776).
T1 sequence (P36776 whole entry): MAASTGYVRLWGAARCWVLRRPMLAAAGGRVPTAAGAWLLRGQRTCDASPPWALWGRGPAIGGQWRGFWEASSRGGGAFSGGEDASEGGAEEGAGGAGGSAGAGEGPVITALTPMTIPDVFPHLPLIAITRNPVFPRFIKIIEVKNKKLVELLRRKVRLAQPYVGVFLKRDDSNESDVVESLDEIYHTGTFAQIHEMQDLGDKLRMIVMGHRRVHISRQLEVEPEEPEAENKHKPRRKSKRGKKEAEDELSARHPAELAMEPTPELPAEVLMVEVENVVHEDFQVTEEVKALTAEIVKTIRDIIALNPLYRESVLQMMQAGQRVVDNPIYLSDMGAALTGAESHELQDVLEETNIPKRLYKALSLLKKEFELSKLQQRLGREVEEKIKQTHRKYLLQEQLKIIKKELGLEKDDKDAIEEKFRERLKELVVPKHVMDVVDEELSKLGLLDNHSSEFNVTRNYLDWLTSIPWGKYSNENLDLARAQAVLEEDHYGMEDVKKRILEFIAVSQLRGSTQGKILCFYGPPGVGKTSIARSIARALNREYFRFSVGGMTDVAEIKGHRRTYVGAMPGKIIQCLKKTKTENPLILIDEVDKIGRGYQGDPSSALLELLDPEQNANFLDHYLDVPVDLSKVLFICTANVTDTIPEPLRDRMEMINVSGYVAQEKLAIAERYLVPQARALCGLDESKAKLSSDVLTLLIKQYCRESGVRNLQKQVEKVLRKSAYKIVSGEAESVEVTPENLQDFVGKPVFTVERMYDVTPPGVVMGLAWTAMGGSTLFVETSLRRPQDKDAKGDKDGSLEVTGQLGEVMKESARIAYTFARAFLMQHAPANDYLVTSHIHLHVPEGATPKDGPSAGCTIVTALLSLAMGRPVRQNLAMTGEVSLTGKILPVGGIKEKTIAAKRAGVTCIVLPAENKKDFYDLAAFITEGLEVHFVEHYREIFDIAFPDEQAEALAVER
In words: FRET-Based Assay. Here is the method:
The LONP1-containing mix (10 μL) was incubated with the test compound for 15 min at 37° C. before adding the peptide-containing mix (5 μL). Solutions were dispensed using a small cassette-Multidrop Combi (Thermo Scientific).

pIC50: −log10 of the molar value.

A word on the pIC50: it is −log10 of the IC50, conventionally taken in molar units. Low readings indicate a large IC50, high ones a small IC50. In the case of `COCC[C@@H](NC(=O)c1cnccn1)C(=O)N[C@@H](CCCc1ccccc1)B(O)O` [US20250059213, Compound 13], the pIC50 was greater than 7.30.
